We go through six compounds from article PMC9735595, “Advanced EPI-X4 Derivatives Covalently Bind Human Serum Albumin Resulting in Prolonged Plasma Stability” (International Journal of Molecular Sciences, 2022).

Ends that are not written are not given here. Peptide text beside a SMILES is read from it. * marks the point of attachment. Cam = NC(=O)C*

Data set [1] in a line: Half-life determination in plasma by mass spectrometry (LC-MS/MS). As to conditions: 37 °C, one-phase decay; for half-life in human plasma, mass spectrometry, samples diluted with 0.1% TFA / half-life at 7 µM: 7 µM in human plasma; for half-life in human plasma, mass spectrometry, samples diluted with 0.1% TFA: aliquots diluted in 0.1% TFA only, LC-MS/MS peak area of intact free peptide, triplicate; for half-life at 7 µM / half-life: both sexes, pooled K3 EDTA plasma, 3 rounds; for half-life at 7 µM: TFA samples ten-fold diluted with 50 mM NH4HCO3 + 10 mM DTT + 6M GuHCl before LC-MS/MS, read-out: half-life in human plasma, mass spectrometry, after GuHCl + DTT ("real" half-live); for half-life: human plasma, LC-MS/MS of intact peptide normalized to t = 0, sample treatment for the variants not stated, read-out: half-life in human plasma, mass spectrometry, peptides without a reactive Cys-thiol. The class given is in vitro ADME, human. How it is done:
A 50 µL-aliquot of human plasma was spiked with 7 µM JM#21 or WSC02. The mixture was stirred for a few seconds and incubated at 37 °C. Five microliter aliquots were separated after 0, 5, 10, 20, 30, 45, 60, 90, and 120 min. Aliquots were immediately diluted with 1.5 mL 0.1% TFA and stored at −80 °C. The experiment was performed in triplicate. Additionally, for the measurement of denatured samples prior to MS measurement, all of the samples stored in 0.1% TFA were ten-fold diluted with 50 mM NH4HCO3 + 10 mM DTT + 6M GuHCl. A 15 uL-aliquot of every sample was used for mass spectrometry analysis as follows: samples were measured using an Orbitrap Elite Hybrid mass spectrometry system (Thermo Fisher Scientific, Bremen, Germany) online coupled to an U3000 RSLCnano (Thermo Fisher Scientific, Idstein, Germany) employing an Acclaim PepMap analytical column (75 μm × 500 mm, 2 μm, 100 Å, Thermo Fisher Scientific, Bremen, Germany) at a flow rate of 250 nL/min. Using a C18 μ-precolumn (0.3 mm × 5 mm, PepMap, Dionex LC Packings, Thermo Fisher Scientific, Bremen, Germany), samples were preconcentrated and washed with 0.1% TFA for 5 min at a flow rate of 30 μL/min. The subsequent separation was carried out using a binary solvent gradient consisting of solvent A (0.1% FA) and solvent B (86% ACN, 0.1% FA). The column was initially equilibrated in 5% B. In the first elution step, the percentage of B was raised from 5 to 15% in 5 min, followed by an increase from 15 to 40% B in 30 min. The column was washed with 95% B for 4 min and re-equilibrated with 5% B for 19 min. The mass spectrometer was equipped with a nanoelectrospray ion source and distal-coated SilicaTips (FS360-20-10-D, New Objective, Woburn, MA, USA). The instrument was externally calibrated using standard compounds (LTQ Velos ESI Positive Ion Calibration Solution, Pierce, Thermo Scientific, Rockford, IL, USA). The system was operated using the following parameters: spray voltage, 1.5 kV; capillary temperature, 250 °C; S-lens RF level, 68.9%. XCalibur 2.2 SP1.48 (Thermo Fisher Scientific, Bremen, Germany) was used for data-dependent tandem mass spectrometry (MS/MS) analyses. Full scans ranging from m/z 370 to 1700 were acquired in the Orbitrap at a resolution of 30,000 (at m/z 400) with automatic gain control (AGC) enabled and set to 106 ions and a maximum fill time of 500 ms. Up to 20 multiply-charged peptide ions were selected from each survey scan for collision-induced fragmentation (CID) in the linear ion trap using AGC set to 10,000 ions and a maximum fill time of 100 ms. For MS/MS fragmentation, normalized collision energy of 35% with an activation q of 0.25 and an activation time of 30 ms was used.
For visualization in the XCalibur Qual Browser 2.0 (Thermo Fisher Scientific, Bremen, Germany), extracted ion xhromatograms (XICs) of the most intense isotope (±20 ppm), as theoretically predicted, at z = 3 or z = 4 were calculated. Using default parameters within the QualBrowser, peak areas were calculated and exported. Half-lives were determined by fitting the data (peak area vs. time) to a one-phase exponential decay model using GraphPad Prism 8.4.3 (GraphPad Prism Software LLC, San Diego, CA, USA).
(§1) The influence of several reagents on peptide detection was tested with aliquots separated (peptide + plasma, 300-fold diluted in 0.1%TFA) at t = 10 min. The aliquots were analyzed by LC-MS/MS, as previously described, after 10-fold dilution in 0.1% TFA, 6M GuHCl, 50 mM NH4HCO3 + 10 mM DTT, and 50 mM NH4HCO3 + 10 mM DTT + 6M GuHCl, respectively.
(§2) SupT1 cells were cultured in RPMI supplemented with 10% FCS, 100 units/mL penicillin, 100 µg/mL streptomycin, 2 mM L-glutamine, and 1 mM HEPES (Gibco). Blood was collected from healthy donors (male and female, average age 28 years) using S-Monovettes K3 EDTA (Sarstedt). Plasma was obtained by centrifugation of whole blood at 2.500× g for 15 min. Plasma of 6 donors was pooled and stored at −80 °C.

In the next data set the test system is CXCR4. The note with it: cited from earlier work. From the text: In addition, both peptides contain a cystein ...
Data set [2] can be described thus: Functional plasma stability assay (remaining activity in CXCR4 antibody competition after incubation in plasma). The format is in vitro ADME, human. As to conditions: 37 °C; for half-life in human plasma, functional assay: 20 µM in 100% pooled human K3 EDTA plasma (6 donors), aliquots serially diluted in cold PBS, 12G5-APC competition on SupT1 cells, 2 h at 4 °C, flow cytometry, activity = IC50(t)/IC50(t=0) x 100, one-phase decay, 3 rounds of plasma incubation. How it is done:
For the functional assay, WSC02 (a) or JM#21 (b) were spiked into human plasma and incubated at 37 °C. At indicated time points, aliquots were taken and serially diluted in cold PBS. […] After 2 h, unbound antibody was removed, and cells were analyzed by flow cytometry. Remaining activity was determined described before. For detection by mass spectrometry, WSC02 (a) or JM#21 (b) were spiked into plasma and incubated at 37 °C. and analyzed in LC-MS/MS. Half-lives were calculated using a one-phase decay model in GraphPad Prism. Curve fits are shown as dashed lines. Data shown are derived from 3 individual rounds of plasma incubation ± SEM.
as §2
Competition of compounds with an APC-labeled antibody specific for ECL2 of CXCR4 (clone 12G5) was performed in SupT1 cells as described. For this, cells (without buffer) were precooled at 4 °C and a serial dilution of compounds in PBS together with a constant concentration of antibody diluted in buffer (PBS with 1% FCS) was added. After 2 h at 4 °C, unbound antibody was removed and cells analyzed in flow cytometry (CytoFLEX, Beckman Coulter). Mean fluorescence signals (MFI) in the presence of PBS only was set 100%. Isotype control was set 0%. Half-maximal inhibitory concentrations (IC50) were calculated in GraphPad Prism by nonlinear regression.
Decrease in CXCR4-binding activity after incubation of compounds in human plasma was determined to calculate functional stability as described (Harms et al. 2020). For this purpose, the peptides were dissolved at a concentration of 20 µM in 100% plasma. The first aliquot (t = 0) was immediately taken and stored at −80 °C. Aliquots were taken at given time points and also stored. To determine CXCR4 binding, all aliquots were thawed together and serially diluted in ice-cold PBS and subsequently, antibody competition was performed as described before. IC50 at t = 0 defined as 100% activity and decrease in activity was calculated by IC50 (t)/IC50 (t = 0) × 100. Half-lives were determined by one-phase decay using GraphPad Prism.

Data set [3] deals with T1, human serum albumin (HSA) (Homo sapiens, UniProt P02768).
T1 construct: from tissue; host or cells: human plasma
The data set can be described thus: Interaction with plasma components: size-exclusion fractionation and tryptic digestion of spiked plasma, LC-MS/MS. The class given is in vitro ADME. The note with it: plasma spiked with peptide, 37 °C, 10 min; SEC fractions treated with DTT + GuHCl; tryptic digest LC-MSMS. Here is the method: as §1
A 5 µL aliquot of the peptides in plasma, after incubation at 37 °C for 10 min, was injected into a size-exclusion column Yarra SEC-2000 (Phenomenex, CA, USA) of dimensions 7.8 × 300 mm, 3 µm particle size. The separation was done at a flow rate of 0.5 mL/min using a buffer composed of 25 mM NaH2PO4 + 25 mM Na2HPO4 + 250 mM KCl (pH 6.65). Fractions were collected every one minute, and then analyzed by mass spectrometry in denaturing conditions (1/10 in 50 mM NH4HCO3 + 10 mM DTT + 6M GuHCl) as previously described.
A 5 µL aliquot of plasma spiked with WSC02 or JM#21 was mixed with trypsin (50:1) and incubated at 37 degrees for 16 h. Half of the digested sample was reduced and carbamidomethylated, as described above. The digested samples, both unmodified and carbamidomethylated, were analyzed by mass spectrometry, as previously described in this section.

Setting [4] is: human plasma, antibody competition read-out, 3 rounds.
Setting [5] is: human plasma, 30 min, antibody competition read-out, 3 rounds.

T1 sequence (P02768 25-609): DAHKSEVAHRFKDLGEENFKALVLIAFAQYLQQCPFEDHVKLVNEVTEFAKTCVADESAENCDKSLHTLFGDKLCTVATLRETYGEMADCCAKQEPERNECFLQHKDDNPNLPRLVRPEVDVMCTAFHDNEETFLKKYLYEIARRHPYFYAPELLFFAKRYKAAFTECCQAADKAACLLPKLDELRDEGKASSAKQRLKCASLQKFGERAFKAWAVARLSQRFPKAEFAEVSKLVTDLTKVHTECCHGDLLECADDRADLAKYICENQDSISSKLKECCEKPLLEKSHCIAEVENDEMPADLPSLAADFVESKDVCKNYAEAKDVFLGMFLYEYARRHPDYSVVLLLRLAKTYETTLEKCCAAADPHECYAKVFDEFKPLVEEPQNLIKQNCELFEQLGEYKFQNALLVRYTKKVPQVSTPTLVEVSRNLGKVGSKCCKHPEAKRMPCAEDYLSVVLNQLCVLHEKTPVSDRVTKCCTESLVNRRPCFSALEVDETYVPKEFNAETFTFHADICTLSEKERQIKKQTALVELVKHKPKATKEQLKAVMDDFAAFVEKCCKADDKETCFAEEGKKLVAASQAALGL

With `CC[C@H](C)[C@H](N)C(=O)N[C@@H](CC(C)C)C(=O)N[C@@H](CCCNC(=N)N)C(=O)N[C@@H](Cc1c[nH]c2ccccc12)C(=O)N[C@@H](CO)C(=O)N[C@@H](CCCNC(=N)N)C(=O)N[C@@H](CCCCN)C(=O)N[C@@H](CC(C)C)C(=O)N1CCC[C@H]1C(=O)N[C@@H](CS)C(=O)N[C@H](C(=O)N[C@@H](CO)C(=O)O)C(C)C` [EPI-X4 JM#21], in data set [1], the “half-life in human plasma, mass spectrometry, samples diluted with 0.1% TFA” value is 1.7 min and the half-life at 7 µM is 5 min. In addition, the “higher antagonistic activity as compared with EPI-X4” value in the data set on CXCR4 is about 300 fold. Further, in data set [2], the “half-life in human plasma, functional assay” value (from here on “half-life … functional assay”) stood at 6 min. Also, in data set [2] (listed as JM#21), the “half-life … functional assay” value is listed as about 6 min. In data set [2] (setting [4]), the “activity decreased by (loss of activity) after 15 min in plasma” value (shortened to “activity decreased by (loss of activity)”) is on record as 69%. In addition, the “remaining activity after 30 min in plasma” value in data set [2] (setting [5]) turned out to be 10%. In addition, the “interaction with human serum albumin in plasma (in words)” value in data set [3] is listed as “forming a disulfide bridge with a free thiol group (Cys34) on HSA”.
`CC[C@H](C)[C@H](N)C(=O)N[C@@H](CC(C)C)C(=O)N[C@@H](CCCNC(=N)N)C(=O)N[C@@H](Cc1c[nH]c2ccccc12)C(=O)N[C@@H](CO)C(=O)N[C@@H](CCCNC(=N)N)C(=O)N[C@@H](CCCCN)C(=O)N[C@@H](CC(C)C)C(=O)N1CCC[C@H]1C(=O)N[C@@H](CSCC(N)=O)C(=O)N[C@H](C(=O)N[C@@H](CO)C(=O)O)C(C)C` [JM#21 Cdm]: the half-life in data set [1] was 3 min. The “half-life … functional assay” value in data set [2] is listed as 3 min. Also, the “activity decreased by (loss of activity)” value in data set [2] (setting [4]) is on record as 95%.
In the case of `CC[C@H](C)[C@H](N)C(=O)N[C@H](C(=O)N[C@@H](CCCNC(=N)N)C(=O)N[C@@H](Cc1c[nH]c2ccccc12)C(=O)N[C@@H](CO)C(=O)N[C@@H](CCCCN)C(=O)N[C@@H](CCCCN)C(=O)N[C@H](C(=O)N1CCC[C@H]1C(=O)N[C@@H](CSCC(N)=O)C(=O)N[C@H](C(=O)N[C@@H](CO)C(=O)O)C(C)C)C(C)C)C(C)C` [WSC02 Cdm] (H-IVRWSKKVPC(Cam)VS-OH), in data set [1], the half-life came out at 5 min. In data set [2], the “half-life … functional assay” value amounted to 6 min. Further, the “activity reduced by (loss of activity) after 30 min in plasma” value in data set [2] (setting [5]) came to 93%.
On to ILRWSRKLPSVS [JM#21 C10S], for which the half-life in data set [1] is 4 min. In addition, in data set [2], the “half-life … functional assay” value is recorded as 4 min. Moreover, the “activity decreased by (loss of activity)” value in data set [2] (setting [4]) was determined as 91%.
For IVRWSKKVPCVS [EPI-X4 WSC02], in data set [1], the “half-life in human plasma, mass spectrometry, samples diluted with 0.1% TFA” value is 0.7 min and the half-life at 7 µM is 6 min. In addition, in data set [2], the “half-life … functional assay” value was 9 min. The “half-life … functional assay” value in data set [2] (listed as WSC02) is “about 9 min”. Further, the “remaining activity after 60 min in plasma” value in data set [2] (human plasma, 60 min, antibody competition read-out, 3 rounds) amounted to 20%. In addition, the “interaction with human serum albumin in plasma (in words)” value in data set [3] is on record as “forming a disulfide bridge with a free thiol group (Cys34) on HSA”.
Turning to IVRWSKKVPSVS [WSC02 C10S], the half-life in data set [1] was determined as 4 min. In addition, the “half-life … functional assay” value in data set [2] worked out at 7 min. Also, the “activity reduced by (loss of activity) after 30 min in plasma” value in data set [2] (setting [5]) is given as 92%.
